This note sets out measurements from patent publication US7133717B2, “Tissue electroperforation for enhanced drug delivery and diagnostic sampling” (Johnson & Johnson Consumer Companies, Inc., priority 1999, dated 2006).

Format in all cases: in vivo
Holding throughout (conditions): two pigs

Series [1] can be described thus: Electroperforation (25 pores/cm^2) followed by passive diffusion of erythropoietin for transdermal delivery, plasma erythropoietin by ELISA. The procedure:
(§1) To evaluate the pore transport pathway created through the stratum corneum of the skin by electroperforation, an in vivo experiment was conducted on the back skin of Yorkshire pigs (female, ˜12 kg) using an electrosurgery apparatus (Surgitron™, Ellman International, Inc., Hewlett, N.Y.). The pigs were immobilized with appropriate anesthetics and analgesics. Electrofulguration current was used with a fine wire electrode (0.26 mm in diameter) and power output setting at between scale 3 to 10. A small pore was created on the surface of the skin by carefully moving the electrode towards the skin until the tip of the electrode almost touched the skin. The electrode was quickly moved away from the skin as soon as an electric arc appeared in the gap between the electrode tip and the skin surface.
An electroperforation procedure was conducted in two pigs similar to that in Example 3, followed by passive diffusion of erythropoietin (20 kU/ml, Procrit®, Ortho Biotech, Inc., Raritan, N.J.) at the treatment site. There were 25 pores/cm^2 generated with electroperforation on each pig. The drug chamber based over the electroperforation-treated skin area contained 0.5 ml of erythropoietin solution. Blood samples were collected for erythropoietin analysis with an ELISA method. The erythropoietin delivery procedure was carried out for 7 hours. […]

The test system of series [2] is pigs. Kind of series: Electroperforation (9 pores/cm^2) followed by passive diffusion and iontophoresis of insulin for transdermal delivery, blood glucose monitoring. The procedure: as §1
An electroperforation procedure was conducted in two pigs similar with a pore density of 9 pores/cm^2 on the skin and subsequently was followed by transdermal insulin delivery. The purpose of using a lower pore density in this experiment was to examine the effect of pore number (e.g., the extent of the transport pathway available) to transdermal insulin delivery. The same insulin-containing chamber and drug application procedures were used in this experiment as those in the Example 2. […]

In series [3] the test system is pigs. As to the kind of experiment: Electroperforation (39 pores/cm^2) followed by passive diffusion of insulin for transdermal delivery, blood glucose monitoring. The procedure: as §1
The electroperforation procedure described in Example 1 was conducted in two pigs with a pore density of 39 pores/cm^2 of the skin and subsequently followed by transdermal insulin delivery with passive diffusion. An insulin-containing chamber was immediately placed onto the electroperforation-treated skin. […] Blood glucose of the pigs was monitored by obtaining blood samples of the ear vein, which were analyzed using two blood glucose analyzers separately to assure the accuracy (One Touch® Basic, LifeScan, Inc., Milpitas, Calif.).

Take erythropoietin: the plasma erythropoietin concentrations result in series [1] (one day after the delivery experiment) was “still above the endogenous basal level”. The plasma erythropoietin concentration entry in series [1] (passive diffusion, 0.5 ml of 20 kU/ml solution, during the 7 hour delivery until chambers removed) was “progressive increase”.
On to insulin, for which the blood glucose reduction entry in the series on pigs [2] (during iontophoresis, 4 mA DC, two 30-minute sections at 1.5 hour and 3 hour) is “rapid blood glucose reduction”; with pigs [3] (0.5 ml insulin solution 100 U/ml, contact area 2.3 cm^2), “greater than 50 % of the basal level”. Further, the blood glucose levels result in the series with pigs [2] (first 1.5 hours, passive diffusion only) is “did not decline”; in the series with pigs [3] (from the onset of insulin delivery), “declined rather quickly”.
